{"source": "patent US20230181751A1", "about": "“FORMULATION OF PURE DIMETHOXY CURCUMIN-HUMAN SERUM ALBUMIN AND A PROCESS FOR THE PREPARATION THEREOF” (SREE CHITRA TIRUNAL INSTITUTE FOR MEDICAL SCIENCES AND …, priority 2020, published 2023)", "key": {"[1]": {"conditions": "cited from earlier work"}, "[2]": {"conditions": "cited from earlier work", "remark": "listed apart in the source"}, "[3]": {"experiment": "solubility", "type": "physicochemical", "conditions": "water, before conjugation"}, "[4]": {"test_system": "Fibroblast cell line (L929)", "experiment": "MTT cytotoxicity assay, DMCHSA versus free DMC", "type": "cell-based, mouse", "conditions": "similar molar concentrations, 24 h-48 h", "method": "Cancer cell lines (A549,MCF-7), Fibroblast cell line (L929), and primary cells (ECs and CCs) were cultured in 96-well plates containing 100 µl medium, kept this plate in CO2 incubator (5% CO2) at 37° C. for 24 h. DMCHSA solution was freshly prepared by dissolving the lyophilized conjugate in DMEM F12 medium and added (0.05 mg/ml, 0.1 mg/ml, 0.2 mg/ml, 0.4 mg/ml) in 96 well plate for 24 h. […] In all cultures standard MTT assay quantified viable cells after treating with DMCHSA/free DMC. Briefly, commercial MTT (0.5 mg/ml) reagent was dissolved in medium. This solution was filtered through a 0.22 µm filter and stored at 2 - 8° C. After removal of 100 µl medium, MTT dye solution was added and the plates were incubated at 37° C. for 4 h in a humidified 5% CO2 incubator, followed by 100 µl of DMSO added to each well, and mixed thoroughly to dissolve the dye crystals.\nThe absorbance was measured using an ELISA plate reader at 570 nm. High optical density readings corresponded to a high intensity of dye colour. The fractional absorbance was calculated by the formula: % Cell survival/PR = Mean absorbance in test × 100 Mean absorbance in control"}, "[5]": {"experiment": "storage stability of DMCHSA solution (UV and FTIR spectra)", "type": "physicochemical", "method": "The liquid stability of the product was analysed at 24 h interval for 48 h or 72 h. The UV spectra recorded at different storage period are shown\nFTIR spectra are shown to substantiate the chemical degradation after 48 h of storage of DMCHSA solution.\nThe lyophilized samples were used for respective periods as prepared for liquid stability, were lyophilized and recorded FTIR spectrum.\nThus, liquid stability of DMCHSA stored for […] is evident."}}, "note": "Like-named read-outs stand apart in the source and are kept apart here."}
{"smiles": "COc1cc(/C=C/C(=O)CC(=O)/C=C/c2ccc(O)c(OC)c2)ccc1O", "note": "[DMC, (1E,6E)-1,7-bis(4-hydroxy-3-methoxyphenyl)hepta-1,6-dienne-3,5-dione]", "values": [{"measurement": "solubility in acetone, DMSO and ethyl ether", "setting": "[1]", "result": "very soluble"}, {"measurement": "solubility in ethyl alcohol, glacial acetic acid and propylene glycol", "setting": "[1]", "result": "soluble"}, {"measurement": "solubility in water, petroleum ether and benzene", "setting": "[1]", "result": "poorly soluble"}, {"measurement": "half-life of DMC", "setting": "[2]; in the presence of protein", "result": "1 to 2", "unit": "h"}, {"measurement": "half-life of DMC", "setting": "[2]; physiological pH, without protein", "result": "a few minutes"}, {"measurement": "solubility", "setting": "[3]", "result": 20, "unit": "µM"}, {"measurement": "cytotoxicity on fibroblasts, DMCHSA compared with free DMC", "setting": "[4]", "result": "less cytotoxic"}, {"measurement": "UV-Vis spectral stability", "setting": "[5]", "result": "degrading free curcumin in 2h"}]}
